Reference: paper PMC7287882, “Dual miRNases for Triple Incision of miRNA Target: Design Concept and Catalytic Performance” (Molecules, 2020)

Tested on: miR-21
Experiment: Ribonuclease activity assay, cleavage of miR-21
Assay type: biochemical
Conditions: buffer (2) 20 mM Tris-HCl pH 7.8, 40 mM KCl, 8 mM MgCl2, 1 mM DTT, 0.02 mg/mL BSA, miRNA 1 µM, DC 20 µM, 37 °C
Protocol: The ribonuclease activity of DCs was studied under two different buffer conditions: buffer (1) contained 50 mM Tris-HCl, pH 7.0, 200 mM KCl, 1 mM EDTA, which imitates intracellular conditions (e.g., pH and potassium ions concentration) and was used in a number of studies previously; and buffer (2) contained 20 mM Tris-HCl, pH 7.8, 40 mM KCl, 8 mM MgCl2, 1 mM DTT, 0.02 mg/mL BSA, which is recommended for in vitro reactions with RNase H (Figure 3 and Figure 4).
Figure 3 Kinetics of cleavage of 5′-[^32P]-labeled miR-17, miR-18a, miR-155, miR-21 and miR-21_1 by corresponding DCs in the buffer (1), containing 50 mM Tris-HCl, pH 7.0, 200 mM KCl and 1 mM EDTA. (a–e) Radioautographs of 18% denaturing PAAG showing the cleavage products of miR-17, miR-18a, miR-155, miR-21 and miR-21_1, respectively. miRNA (1 µM) and corresponding DC (20 µM) were incubated at 37 °C for 72 h. Lanes Im and T1—imidazole ladder and partial RNA digestion with RNase T1, respectively; control–miRNA was incubated in the absence of the conjugate. The incubation time (in hours) is show at the top. SS gap–single-stranded region of miRNA formed upon hybridization with DC; (f) Kinetics of miRNAs cleavage by DCs depending on the incubation time. Data are presented as mean ± s.e.
Figure 4 Kinetics of cleavage of 5′-[^32P]-labeled miR-17, miR-18a, miR-155, miR-21, and miR-21_1 by corresponding DCs in the buffer (2), containing 20 mM Tris-HCl, pH 7.8, 40 mM KCl, 8 mM MgCl2, 1 mM DTT, 0.02 mg/mL BSA. (a–e) Radioautographs of 18% denaturing PAAG showing the cleavage products of miR-17, miR-18a, miR-155, miR-21 and miR-21_1, respectively. miRNA (1 µM) and corresponding DC (20 µM) were incubated at 37 °C for 72 h. Lanes Im and T1–imidazole ladder and partial RNA digestion with RNase T1, respectively; control–miRNA was incubated in the absence of the conjugate. The incubation time (in hours) is shown at the top. SS gap–single-stranded region of miRNA formed upon hybridization with DC; (f) Kinetics of miRNAs cleavage by DCs. Data are presented as mean ± s.e.
The reaction mixture (10 µL) contained 800 cpm (Cherenkov’s counting) of [^32P]-miRNA, 1 μM unlabeled miRNA, one of the conjugates at a concentration 10 or 20 μM and one of the buffers: 50 mM Tris-HCl, pH 7.0, 200 mM KCl, 1 mM EDTA–buffer (1) or 20 mM Tris-HCl, pH 7.8, 40 mM KCl, 8 mM MgCl2, 1 mM DTT, 0.02 mg/mL BSA–buffer (2). The mixture was incubated at 37 °C for 0–72 h and quenched by precipitation of RNA with 2% LiClO4 in acetone (90 µL). RNA was collected by centrifugation and dissolved in loading buffer (8 M urea, 0.025% bromophenol blue, 0.025% xylene cyanol). RNA cleavage products were analyzed in 18% PAAG/8M urea using TBE (100 mM Tris-borate, pH 8.3, 2 mM EDTA) as running buffer. To identify cleavage sites, an imidazole and T1-ladders produced by partial RNA cleavage with 2 M imidazole buffer (pH 7.0) and with RNase T1 [68], respectively, were run in parallel. To obtain quantitative data, gels were dried and analyzed using Molecular Imager FX. The total extent of RNA cleavage and the extent of RNA cleavage at each individual site were determined by using Quantity One software v.4.1 (Bio-Rad, Hercules, CA, USA).

TCAACATC–linker 1–[GRLRL]2–linker 2–GATAAGCTA [miRNA-21-DC, Dual oligonucleotide-peptide conjugate targeted to miR-21: catalytic peptide [LRLRG]2 between two 2-aminoadenine-containing oligodeoxyribonucleotides]
Total Cleavage (2 h): 4% | Total Cleavage (6 h): 13% | Total Cleavage (24 h): 30% | Total Cleavage (48 h): 30% | Total Cleavage (72 h): 34%
